Experiment: Human HepG2 cell viability assay in 384 well format
Format: toxicity, cell-based
Design: dose 125 nL, time 70.5 hour; cytotoxicity at 70.5 h: concentration not given beside the values
Conditions: HepG2 cells, read-out: Inhibition

Row | Compound | cytotoxicity at 70.5 h [%]
1 | CC(C)CCNC(=O)c1ccc2c(=O)n(-c3ccccc3)cnc2c1 | -25.3
2 | CCCOc1c(Cl)cc(C(=O)N2CCOC23CCN(C)CC3)cc1Cl | 7.29
3 | O=C(CCC(=O)N1CCC(c2noc3cc(F)ccc23)CC1)NC1CC1 | 13.1
4 | O=C1CCCC2=C1C(c1ccccc1F)Nc1nonc1N2 (configuration not stated) | -3.65
5 | CCCc1nc2c(c(C)c(C)n2Cc2ccncc2)c(N)c1CC | 53.6
6 | CC(C)n1nnc2c(sc3nc(N4CCOCC4)c4c(c32)CCC4)c1=O | -13.1
7 | Cc1nc(Cc2ccccc2)nc2sc(C(=O)O)c(C)c12 | -5.63
8 | COC(=O)[C@H](C)NC(=O)Cn1ccc2ccc(F)cc21 | -1.25
9 | COc1ccc(S(=O)(=O)NCCCc2nnc3nc(C)cc(C)n23)cc1 | -7.77
10 | CC(C)CCNC(=O)CNC(=O)N1CCc2c([nH]c3ccc(Cl)cc23)C1 | -19.7
11 | CSCC[C@@H](CO)NC(=O)c1sc(-c2ccc(Cl)cc2)nc1C | -11.9
12 | CC(C)Cc1nc(OCC(=O)O)c(C#N)c2c1CCCC2 | -7.68
13 | O=C(Cc1csc(-c2cccc(Cl)c2)n1)NCc1cccc(C(=O)O)c1 | -14.3
14 | Cc1nn2c(NC(=O)CSc3ncccn3)csc2nc1=O | -12.6
15 | O=C(NC1CCCC1)c1nc(COc2ccc3c(c2)OCO3)no1 | -9.86
16 | CN1C(=O)C2(CC(=O)Nc3[nH]ncc32)c2cc(Cl)ccc21 (configuration not stated) | -29.3
17 | O=C(C1CC1)N(Cc1ccc2cc[nH]c2c1)C1CC1 | -22.5
18 | CNc1oc(COc2ccc3c(c2)OCO3)nc1C#N | -19.3
19 | Cc1nnc(SCC(=O)c2cc3c(cc2Cl)NC(=O)C3)o1 | -31.5
20 | COCCNc1nc(N2CCOCC2)nc2nccnc12 | -4.36
21 | COCCNC(=O)Cn1ccc2cccc(OC)c21 | 8.67
22 | Cc1nnc(SC2CCc3ccccc3NC2=O)o1 (configuration not stated) | -16.3
23 | COc1cccc(N2Cc3nc(=O)n(Cc4cccc(F)c4)n3C2=O)c1 | -20.7

Row | Compound | cytotoxicity at 70.5 h [%]
24 | CNC(=O)c1nc(COc2c(C)occc2=O)no1 | -14.3
25 | CC(C)c1nc2oc(C(=O)N3CCOCC3)c(N)c2c2c1CCCC2 | -16.6
26 | Cc1nnc(SCC(=O)c2cc3c(cc2Cl)NC(=O)C3)s1 | -30.2
27 | CC(C)CNC(=O)Cn1ccc2ccccc21 | -0.252
28 | CN1CCN(S(=O)(=O)c2cccc(S(=O)(=O)C3CCS(=O)(=O)C3)c2)CC1 (configuration not stated) | -11.1
29 | COC(=O)[C@H](CCSC)NC(=O)Cn1ccc2c(Cl)cccc21 | -17.2
30 | O=C(Cc1noc(C(=O)NCC2CC2)n1)Nc1cccc(C(F)(F)F)c1 | -7.55
31 | Cc1cccnc1NC(=O)C1(n2cnnn2)CCCCC1 | -30.1
32 | CSc1nsc(SCC(=O)c2cc3c(cc2Cl)NC(=O)C3)n1 | -29.3
33 | COc1ccc2c(ccn2CCC(=O)Nc2ccc(C(N)=O)cc2)c1 | -7.39
34 | NC(=O)c1nc(CC(=O)Nc2cccc(C(F)(F)F)c2)no1 | 0.00692
35 | Cc1sc(-n2cnnn2)c(C(=O)NC(C)C)c1C | -10.9
36 | CSc1sc2c(O)cc(=O)[nH]c2c1C(N)=O | 11.3
37 | Nc1nnc(SCC(=O)c2cc3c(cc2Cl)NC(=O)C3)s1 | -25.4
38 | CC(C)C[C@H](NC(=O)Cn1ccc2c(Cl)cccc21)C(=O)O | -15.2
39 | COc1cccc(N2CCN(C(=O)COc3c(C)occc3=O)CC2)c1 | 10
40 | COc1ccc(N2CCN(C(=O)COc3c(C)occc3=O)CC2)cc1 | 2.1
41 | CC(=O)N1CCN(C(=O)c2ccc3ccn(C)c3c2)CC1 | -15.9
42 | O=C(c1cc(=O)c(OCc2ccccc2F)co1)N1CCSCC1 | -3.38
43 | CCc1c(C)sc2c1c(N)nc(=O)n2CCCN(C)C | 5.31
44 | COc1coc(C(=O)Nc2nc(C)cs2)cc1=O | -15.8
45 | COc1ccc2c(ccn2CCC(=O)NCc2ccc(C(=O)O)cc2)c1 | -13.5
46 | COc1ccc2cnn(CC(=O)NC3CCCC3)c(=O)c2c1OC | 2.71

Row | Compound | cytotoxicity at 70.5 h [%]
47 | O=C(c1cc(=O)c(OCc2ccccc2)co1)N1CCSCC1 | -18.7
48 | CCc1c(C)sc2nc3n(CCN4CCCCC4)nc(SC)n3c(=O)c12 | 13.4
49 | CC(C)(CO)Nc1c(NCc2ccccc2)c(=O)c1=O | 0.361
50 | O=C(COc1coc(CN2CCOCC2)cc1=O)Nc1ccccc1F | -12
51 | CC(C)(C)n1ncc2c1NC(=O)CSC2c1ccc2c(c1)OCO2 (configuration not stated) | 2.42
52 | CC(C)CCNc1nc(C(=O)NC2CC2)cs1 | 6.98
53 | O=C(COc1coc(CN2CCCCC2)cc1=O)Nc1cccc(Cl)c1 | -7.03
54 | NC(=O)c1c(SCCN2CCOCC2)sc2c(O)cc(=O)[nH]c12 | 10.5
55 | Cc1nc(NC(=O)c2c(-n3cnnn3)sc(C)c2C)sc1C | -8.41
56 | O=C(NCC(=O)N1CCCC1)c1nc(Cc2c(Cl)cccc2Cl)no1 | -16.3
57 | CS(=O)(=O)N1CCC2(CC1)CN(CCn1cccn1)C(=O)CO2 | 8.7
58 | O=C(c1ccc[nH]1)N1CC2(CCN(c3nccs3)C2)C1 | -3.73
59 | O=C1[C@@H]2CCN(CC3CC3)C[C@@H]2OCCN1c1cccnc1 | 6.28
60 | Cc1cccc(NC(=O)N2Cc3c(CN(C)C)nn(C)c3C2)c1 | -3.74
61 | O=C(c1ccnnc1)N1CCCn2nnc(COCC3CC3)c2C1 | 6.34
62 | COCc1nnn2c1CN(C(=O)c1c[nH]cn1)CCC2 | 0.823
63 | O=S(=O)(C1CC1)N1CCc2ncc(Cn3cccn3)n2CC1 | -1.43
64 | O=C(c1ccsc1)N1CCc2nnc(COc3cncnc3)n2CC1 | 26.7
65 | O=C(c1cccs1)N1CCc2nnc(COc3cncnc3)n2CC1 | 14.1
66 | O=C(c1ncn2c1CNS(=O)(=O)c1ccccc1-2)N1CCOCC1 | 13.4
67 | O=C(Cc1cccs1)N1CCc2nnc(COc3cncnc3)n2CC1 | 14.8
68 | O=C(c1ccc2[nH]ccc2c1)N1Cc2nc(CN3CCCC3)oc2C1 | -5.17
69 | CC(=O)N1C[C@H]2C3(CCN(S(C)(=O)=O)CC3)CC[C@@]2(C(=O)N(C)C)C1 | -8.99

Row | Compound | cytotoxicity at 70.5 h [%]
70 | Cc1cnc(N2CCOC3(CCCN(C(=O)C(C)C)C3)C2)nc1 (configuration not stated) | -3.83
71 | Cn1ccc(CN2CCCC23CCNCC3)n1 | -5.64
72 | COCCN1C=NC2(CCC(C(=O)Nc3ccc(C)cc3)CC2)C1=O (configuration not stated) | -3.77
73 | CCS(=O)(=O)N1CCC2(CC1)CC[C@@]1(C(=O)NC)CN(C(C)=O)C[C@@H]21 | 11
74 | CCS(=O)(=O)N1Cc2c(Cn3ccnc3)nn(C(C)C)c2C1 | 10.4
75 | CCOc1ncnc2c1CCN(S(=O)(=O)CC)CC2 | 14.3
76 | O=C(NC1CCc2[nH]c(=O)ccc2C1)C1CCOCC1 (configuration not stated) | 13.7
77 | CCOc1ncnc2c1CCN(S(=O)(=O)C1CC1)CC2 | 14
78 | CN(C)C(=O)COCC1C[C@@H]2OCCN(Cc3ccco3)[C@H]2C1 (some centres not stated) | -15.5
79 | CN(C)C(=O)CS(=O)(=O)Cc1cc(Cl)c2c(c1)OCCO2 | 3.21
80 | CC(NC(=O)NCC1(c2ccc(F)cc2)CC1)c1nncn1C (configuration not stated) | -1.68
81 | COc1cc(C(=O)N(Cc2cnn(C)c2)C(C)C)ccc1OC(C)C | 3.17
82 | Cc1cc(C)cc(C2(C(=O)NCC3CCN(CC(F)(F)F)C3)CC2)c1 (configuration not stated) | -2.93
83 | Cn1ccc(CN2CCOCC23CCNCC3)n1 | -6.05
84 | COc1cc(N2CCC3(CCCN3Cc3ccn(C)n3)CC2)ncn1 | -3.28
85 | Cn1cc(C(=O)NC[C@H]2OC[C@@H]3CCN(C4CCOCC4)C[C@@H]32)cn1 | -3.43
86 | Cc1ccc(N2CCC3(CC2)CCN(C2CCOC2)CC3)nn1 (configuration not stated) | -6.73
87 | Cn1nc(CN2CCCC2)c2c1CN(C(=O)Nc1cccc(F)c1)CC2 | -7.05
88 | O=C(c1ccncc1)N1CCCn2nnc(COCCO)c2C1 | -5
89 | O=C1COC2(CCN(Cc3ccco3)CC2)CN1CCn1cccn1 | -6.38
90 | COc1cc(N2CCC3(CCCN3Cc3cnn(C)c3)CC2)ncn1 | -3.32
91 | Cc1nc(CN2C[C@@H]3CN(c4ncccn4)C[C@@H]3C2=O)cs1 | -10.3
92 | CCCN1CCCn2c(nc(CNC(=O)c3ccsc3)cc2=O)C1 | -3.68

Row | Compound | cytotoxicity at 70.5 h [%]
93 | COCC1CC2(CCN(C(C)=O)CC2)CN1Cc1csc(C)n1 (configuration not stated) | -4.16
94 | CCc1cnc(N2C[C@H]3CN(Cc4csc(C)n4)C(=O)[C@H]3C2)nc1 | -8.61
95 | CCN1CCCC12CCN(C(=O)c1nccn1C)CC2 | -7.36
96 | Cn1ccnc1C(=O)N1CCC2(CCN2CC2CC2)C1 (configuration not stated) | 9.69
97 | CS(=O)(=O)N1C[C@H]2CCCN(Cc3ccsc3)[C@H]2C1 | 13.4
98 | COCCN1CCCc2sc(C(=O)N3CCCN(C)CC3)nc21 | 11.7
99 | COCc1n[nH]c2c1CN(Cc1cccs1)C2 | -6.13
100 | O=C(NC[C@H]1OC[C@@H]2CCN(C3CCOCC3)C[C@@H]21)c1ccncc1 | -3
101 | Cc1noc(C)c1CN1CCc2cnn(C)c2C1COCC1CC1 (configuration not stated) | -3.84
102 | COCCN1CCN(Cc2c(C)noc2C)Cc2ccc(C)nc21 | -1.53
103 | CC(C)N1CCCn2c(nc(CNC(=O)c3nccn3C)cc2=O)C1 | -17.1
104 | CN(C)[C@H]1COC[C@@H]2CN(Cc3ccc4c(c3)OCO4)C[C@@H]21 | -3.62
105 | Cc1cnc(N2CCOC3(CCCN(CC(=O)N(C)C)C3)C2)nc1 (configuration not stated) | -3.5
106 | CCOCC1CN(c2ccc(C)nn2)Cc2nn(CC)cc21 (configuration not stated) | -7
107 | CN(C)C(=O)CN1CCC2(C1)CN(CC1CCOC1)C2 (configuration not stated) | 11.8
108 | CN1CCn2c(-c3cnn(C)c3)cnc2C12CCN(CC1CC1)CC2 | -4.02
109 | CN1CCn2c(-c3ccccc3)cnc2C12CCN(CC1CC1)CC2 | -3.45
110 | Cc1noc(C)c1CN1CCN(CCN(C)C)c2ncccc2C1 | -2.96
111 | CCN(CC)Cc1nc2c(o1)CN(C(=O)c1ccc3[nH]ccc3c1)C2 | -17
112 | O=C(NCCc1c[nH]c2ccccc12)C1CCC(Cn2cnnn2)CC1 (configuration not stated) | 19.8
